{"source": "paper PMC12333940", "about": "“A prometabolite strategy inhibits cardiometabolic disease in an ApoE^–/– murine model of atherosclerosis” (JCI Insight, 2025)", "key": {"[1]": {"tested_on": "NF-κB", "assay": "NF-κB-SEAP reporter assay in RAW-Blue cells after LPS", "format": "cell-based", "settings": "then 200 ng/mL LPS 6 h", "protocol": "NF-κB inhibition was assayed using the NF-κB-SEAP reporter cell line, RAW-Blue (InvivoGen, raw-sp). Cells were plated in round-bottom 96-well plates at 100,000 cells per well and cocultured with different concentrations of either NaBut or SerBut (0.15–12 mM) for 24 hours. After the addition of butyrate, cells were rinsed with phosphate buffered saline (PBS) and then stimulated with 200 ng/mL LPS in media for 6 hours."}, "[2]": {"tested_on": "ApoE^–/– mice on an HFD", "assay": "Oil Red O staining of aortic root plaque", "format": "in vivo, mouse", "set-up": "ORO Quantification ORO+ Heart: unit not given here", "settings": "individual mice, experiments 1 and 2", "protocol": "(§1) For 6 weeks, mice were freely administered water, water containing 150 mM SerBut, or water containing an equimolar amount of NaBut. SerBut water was pH adjusted using 10 M NaOH to a final pH of 7.4. […] In concert, mice were fed an HFD with 42% from fat and 0.2% total cholesterol (Envigo, TD-88137) ad libitum. After 6 weeks, mice were euthanized. The lMLNs, ILNs, spleen, heart, and aorta were harvested and processed for flow cytometry analysis ([67]). The liver was harvested and part was homogenized in tissue protein extraction reagent buffer (Invitrogen, 78510) supplemented with protease inhibitor mini tablets (Thermo Fisher Scientific, PIA32955) for Western blotting and qPCR. The remaining liver was fixed with 4% paraformaldehyde and embedded in paraffin for histological analysis.\nHearts were fixed in 4% paraformaldehyde for 24 hours and cryopreserved with sucrose (15% sucrose for 24 hours, 30% sucrose for 24 hours, 1:1 30% sucrose and OCT) before being embedded in OCT (Thermo Fisher Scientific). Frozen embedded samples were sectioned at 8 μm until all 3 leaflets were visible. Aortic root sections were brought to room temperature and rehydrated with PBS. Staining solution was freshly prepared by mixing 3:2 Oil Red O (0.5% in isopropanol, Sigma Aldrich) to water. The solution was filtered through a 0.22 μm PES syringe filter (Millipore) and pipetted onto sections. After 15 minutes in a sealed dark chamber, sections were washed 3 times with water and imaged. Images were analyzed using QuPath (v0.5.0) (https://qupath.github.io). Each leaflet was circled broadly to include the plaque and then subsequently trained on the QuPath pixel classifier using the software’s artificial neural network. Training images were then tested and validated to identify the plaques to calculate their area and exclude non-plaque structures in the image. Plaque sizes were subsequently averaged and used to determine percentage Oil Red O–positive plaque area in the leaflet."}, "[3]": {"tested_on": "ApoE^–/– mice on an HFD", "assay": "Immunofluorescent staining of the aortic root (CD68, iNOS, DAPI)", "format": "in vivo, mouse", "set-up": "Immunoflourescence Quantification #Cells/Area / Immunoflourescence Quantification #iNOS+/Area: unit not given beside the values", "excerpt": "SerBut water was pH adjusted using 10 M NaOH to a final pH of 7.4. […] After 6 weeks, mice were euthanized. […] The liver was harvested and part was homogenized in tissue protein extraction reagent buffer (Invitrogen, 78510) supplemented with protease inhibitor mini tablets (Thermo Fisher Scientific, PIA32955) for Western blotting and qPCR. […] Aortic root sections were brought to room temperature and rehydrated with PBS and permeabilized with 10% dimethyl sulfoxide (DMSO). […] Sections were washed again in PBS with 0.1% Tween 20 and then PBS and mounted with ProLong Gold Antifade Mountant with DAPI (Invitrogen). Slides were imaged with a DMI8 inverted fluorescence microscope (Leica Microsystems) and analyzed with QuPath (v0.5.0)."}, "[4]": {"tested_on": "ApoE^–/– mice on an HFD", "assay": "Flow cytometry of the aorta", "format": "in vivo, mouse", "set-up": "Aorta Flow CD11b+F480+ / Aorta Flow CD11b+Ly6Chi: unit not given here", "excerpt": "SerBut water was pH adjusted using 10 M NaOH to a final pH of 7.4. […] After 6 weeks, mice were euthanized. […] The liver was harvested and part was homogenized in tissue protein extraction reagent buffer (Invitrogen, 78510) supplemented with protease inhibitor mini tablets (Thermo Fisher Scientific, PIA32955) for Western blotting and qPCR. […] The heart with the ascending and descending aorta to the diaphragm was harvested. The perivascular adipose tissue was carefully removed by microdissection while keeping the adventitia intact. […] After 45 minutes of digestion at 37°C with orbital shaking, aortas were passed through a 70 μm cell strainer, rinsed, pelleted, and plated into a U-bottom 96-well microplate for staining. […] Cells were washed in PBS supplemented with 2% FBS (FACS buffer) and stained for 30 minutes on ice with surface antibodies at a 1:200 dilution in a 1:1 mixture of FACS buffer and Brilliant Stain Buffer (BD Biosciences). Cells were washed with FACS buffer and PBS and fixed with 2% paraformaldehyde on ice for 20 minutes. Cells were washed twice with PBS and resuspended in FACS buffer. Precision count beads (BioLegend) were used to determine absolute cell counts. In this study, antibodies used included those against CD16/CD32 (BioLegend, clone 93, catalog 101302), CCR2 (PE; […] BD Biosciences, clone HL3, catalog 558079, BD Biosciences), […] (APC; […] BD Biosciences, clone 30-F11, catalog 564225), F4/80 (BUV496; BD Biosciences, clone T45-2342, catalog 750644), […].5; BioLegend, clone M5/114.15.2, catalog 107626), Ly-6C (APC-Cy7; […]"}, "[5]": {"tested_on": "ApoE^–/– mice on an HFD", "assay": "qPCR of liver lipid metabolism genes", "format": "in vivo, mouse", "set-up": "srebf1 / srebf2 / fasn / acly / scd1 / acaca / cpt1a: scale not given here", "settings": "qPCR; individual mice", "protocol": "We then asked whether SerBut’s effects on disease pathology and inflammation may be partially mediated by changes in lipid metabolism by measuring lipogenic and lipid oxidation gene expression by qPCR after treatment for 6 weeks (Supplemental Figure 10, F–L).\nas §1"}, "[6]": {"settings": "aortic root, individual samples"}}, "note": "Values joined by “and” are separate entries in the source; they are usually repeats but may differ in a detail not shown here. Equal entries are not always repeated.", "data": [{"smiles": "CCCC(=O)[O-].[Na+]", "note": "[NaBut, sodium butyrate, reference compound]", "values": [{"measurement": "NFkB OD", "setting": "[1]; 0.45 mM 24 h", "value": "0.161 and 0.132 and 0.164 and 0.174 and 0.222 and 0.147"}, {"measurement": "NFkB OD", "setting": "[1]; 1.3 mM 24 h", "value": "0.118 and 0.109 and 0.114 and 0.106 and 0.112 and 0.117"}, {"measurement": "NFkB OD", "setting": "[1]; 4 mM 24 h", "value": "0.077 and 0.086 and 0.085 and 0.074 and 0.081"}, {"measurement": "ORO Quantification ORO+ Heart", "setting": "[2]", "value": "19.7151 and 33.3577 and 43.2157 and 32.1745 and 46.8072 and 36.2576 and 32.4176 and 40.5144 and 34.2074 and 37.9228"}, {"measurement": "CD68^+ cells and iNOS^+ cells per unit area atherosclerotic lesion", "setting": "[3]; 6 weeks, compared with water- and SerBut-treated groups", "value": "increased"}, {"measurement": "Immunoflourescence Quantification #CD68", "setting": "[3]; [6]", "value": "1074 and 944 and 743 and 1249 and 728 and 1069 and 1053 and 1330 and 954 and 511"}, {"measurement": "Immunoflourescence Quantification #Cells", "setting": "[3]; [6]", "value": "1302 and 1139 and 1013 and 1531 and 949 and 1262 and 1685 and 1684 and 1364 and 682"}, {"measurement": "Immunoflourescence Quantification #Cells/Area", "setting": "[3]; [6]", "value": "0.004391 and 0.005279 and 0.00411 and 0.005114 and 0.004088 and 0.003979 and 0.00428 and 0.00408 and 0.005037 and 0.004831"}, {"measurement": "Immunoflourescence Quantification #iNOS+", "setting": "[3]; [6]", "value": "500 and 473 and 401 and 466 and 354 and 445 and 695 and 625 and 264"}, {"measurement": "Immunoflourescence Quantification #iNOS+/Area", "setting": "[3]; [6]", "value": "0.001686 and 0.002192 and 0.001627 and 0.001557 and 0.001525 and 0.001403 and 0.001765 and 0.001514 and 0.00187"}, {"measurement": "Immunoflourescence Quantification CD68+/Area", "setting": "[3]; [6]", "value": "0.003622 and 0.004376 and 0.003015 and 0.004172 and 0.003136 and 0.00337 and 0.002675 and 0.003222 and 0.003523 and 0.003619"}, {"measurement": "Immunoflourescence Quantification CD68+iNOS+", "setting": "[3]; [6]", "value": "445 and 379 and 322 and 434 and 281 and 393 and 535 and 517 and 202"}, {"measurement": "Immunoflourescence Quantification CD68+iNOS+/Area", "setting": "[3]; [6]", "value": "0.001501 and 0.001757 and 0.001307 and 0.00145 and 0.001211 and 0.001239 and 0.001359 and 0.001252 and 0.001431"}, {"measurement": "CD45^+ total leukocytes, CD11b^+ monocytes and CCR2^+CD11b^+ monocytes in the aorta", "setting": "[4]; 6 weeks, compared with control groups", "value": "did not"}, {"measurement": "CD11c^+MHCII^hi dendritic cells, CD11b^+F480^+ macrophages and CD19^+ B cells in the aorta", "setting": "[4]; 6 weeks, compared with water controls", "value": "significantly reduced"}, {"measurement": "Aorta Flow B cell Count", "setting": "[4]; individual mice", "value": "315.036 and 240.601 and 72.6582 and 149.307 and 158.07 and 295.152 and 181.142 and 268.448 and 139.825 and 307.858"}, {"measurement": "Aorta Flow CD11b+F480+", "setting": "[4]; individual mice", "value": "25.0597 and 7.5188 and 3.353 and 10.7501 and 8.319 and 26.3753 and 5.998 and 6.129 and 4.994 and 11.9789"}, {"measurement": "Aorta Flow CD11b+Ly6Chi", "setting": "[4]; individual mice", "value": "10.7965 and 20.8384 and 26.2172 and 17.9684 and 39.3795 and 20.0501 and 6.707 and 17.9169 and 5.942 and 82.8937"}, {"measurement": "Aorta Flow T Cell Count", "setting": "[4]; individual mice", "value": "829.356 and 329.574 and 100.604 and 316.531 and 316.14 and 663.15 and 236.324 and 566.315 and 510.612 and 977.48"}, {"measurement": "Aorta Flow CD11b+ Count", "setting": "[4]; individual mice, experiment 2", "value": "159.148 and 69.3047 and 197.085 and 244.83 and 668.174 and 122.361 and 438.833 and 237.203 and 489.938 and 511.933"}, {"measurement": "Aorta Flow CD11b+CCR2+", "setting": "[4]; individual mice, experiment 2", "value": "22.5564 and 10.0604 and 29.8614 and 43.9743 and 133.132 and 27.5912 and 84.5795 and 57.4282 and 142.549 and 96.6587"}, {"measurement": "Aorta Flow CD45 Count", "setting": "[4]; individual mice, experiment 2", "value": "1122.81 and 480.662 and 1340.18 and 1250.3 and 2283.35 and 857.726 and 1975.97 and 1910.11 and 5505.51 and 4110.98"}, {"measurement": "Aorta Flow CD11c+MHCIIhi", "setting": "[4]; individual mice, cell count", "value": "16.2907 and 5.589 and 14.3335 and 20.2044 and 75.358 and 13.1958 and 30.6448 and 26.2172 and 32.3431 and 60.8592"}, {"measurement": "acaca", "setting": "[5]", "value": "0.754 and 1.434 and 0.565 and 0.348"}, {"measurement": "acly", "setting": "[5]", "value": "1.514 and 3.195 and 3.181 and 0.636"}, {"measurement": "cpt1a", "setting": "[5]", "value": "0.594 and 0.912 and 0.54 and 0.529"}, {"measurement": "fasn", "setting": "[5]", "value": "1.21 and 3.882 and 0.92 and 0.454"}, {"measurement": "scd1", "setting": "[5]", "value": "1.215 and 2.79 and 1.889 and 0.696"}, {"measurement": "srebf1", "setting": "[5]", "value": "0.816 and 1.204 and 0.406 and 0.79"}, {"measurement": "srebf2", "setting": "[5]", "value": "0.731 and 1.208 and 0.837 and 0.717"}]}]}
